# Measured values: US10231958B2, “Methods and compositions for enhancing chemotherapy” (THE BOARD OF REGENTS OF THE UNIVERSITY OF TEXAS SYSTEM, priority 2015, dated 2019)
# Starred links: 1 amine or outer side, 2 acyl side, 3 side chain; linkers in the order of their positions; H or OH if unused. Positions of bridges follow the written chain, without caps; N, C: chain ends. Non-standard residues stand in square brackets, D forms with d. Residues, ends and D or L forms follow the SMILES beside them. Chains are numbered I, II in the order given. Actinocin(9to1) = Cc1c2oc3c(C)ccc(C(=O)[*:1])c3nc-2c(C(=O)[*:2])c(N)c1=O; NMeV = CN[C@H](C(=O)O)C(C)C; Sar = CNCC(=O)O
# What was measured:
# [1] = test system: Intracellular ROS production; assay: Real-time ROS production (DCF assay); type: cell-based; settings: for ROS production, agent alone: BSO 2.5 mM, CDDP 75 μM, TMZ 1.5 mM, 4HC 75 μM, 12 h
# Method: Intracellular ROS production was detected using DCFH-DA probe (Sigma) (Zanotto-Filho et al., 2010, Cancer Lett 288, 192-203). This reagent enters the cells and reacts predominantly with highly oxidizing species of ROS, such as hydroxyl radicals, hydroperoxides, and peroxynitrite, thus producing the fluorophore DCF. Briefly, cells were seeded in black-edge clear bottom 96-well plates. After reaching 70% confluence, medium was changed and cells were incubated with 20 μM DCFH-DA dissolved in medium containing 0.5% FBS. After 1 h pre-incubation to allow DCFH-DA uptake, treatments were added to its respective final concentrations and DCF fluorescence was monitored at 0.5, 1, 3, 8, 12, 16 and 24 h in a fluorescence reader (Ex/Em=485/532 nm). Hydrogen peroxide was used as a positive control and N-acetylcysteine (NAC), GSH-ethyl-ester (GSH-E) and Trolox were used as antioxidant standards. As a control, at the end of 24 h, cell viability was assessed and compared to wells in the absence of DCFH-DA.
# IL8, MMP1, MMP3 and PGE2 = assay: ELISA of inflammatory mediators in culture medium; type: cell-based, human; settings: for production of IL-8, MMP-1 and MMP-3: MDA-MB231 culture medium; for prostaglandin E2 (PGE2) in culture medium and COX-2 protein in lysates: human cancer cells, 12 h
# Method: (§1) Quantification of MMP1 and MMP3 content in culture medium was assessed using RayBio-MMP3 and RayBio-MMP1 Elisa Kit (RayBiotech, Inc); IL8 was analyzed by Human IL-8 Elisa kit (Pierce Biotechnology). The levels of prostaglandin E2 (PGE2) were determined using the Prostaglandin E2 EIA Kit Monoclonal (Cayman Chemical Company). Culture media were diluted to fit within the standard curves. For conditioned media (CM) preparation for invasion and in vitro angiogenesis experiments, 12-well plated cells were treated with MMS (or MMS plus inhibitors) for 8 h in the presence of 10% FBS, twice washed with HBSS, and incubated with 700 μL drug/serum-free fresh medium for additional 12 h. Thereafter, the conditioned fresh medium was collected and directly used for migration and invasion experiments in order to reduce freezing associated loss of activity.
# [2] = test system: NRF2, GCLC, ER stress markers; assay: Western blot of NRF2, GCLC and ER stress markers; type: cell-based; settings: for NRF2 and GCLC protein levels: MEFs, MDA-MB231, MCF-7, 8-12 h; for immunocontent of ER stress markers: cancer cells, 24 h; for effect on MMS-induced NRF2 activation: CHX 1 μg/mL, Actinomycin D 5 μg/mL, NAC 7.5 mM
# Method: Western blot. Protein lysates were prepared using RIPA buffer containing 5% sodium deoxycholate, 0.1% SDS, 0.1% Igepal in PBS with a cocktail of protease and phosphatase inhibitors (1 mM PMSF, 1 mM sodium orthovanadate, 1 mM NaF, and 30 μL/mL aprotinin (Sigma-Aldrich, USA)) and clarified by centrifugation. Protein concentration was determined using Bradford Protein Assay Reagent (Biorad, Hercules, Calif.). Equal amounts of protein were resolved using 8-12% SDS polyacrylamide gel, transferred onto nitrocellulose membranes (Hybond-ECL, GE Healthcare Lifesciences, Piscataway, N.J.) and detected using Lumiglo system (Cell Signaling Technology, Calif.) and x-ray films. Primary antibodies included COX-2 (#4842), NRF2 (D1C9), p-JNK1/2 (Thr183/Tyr185, #4671), p-p38 (Thr180/Tyr182, #9216), p-ERK1/2 (Thr202/Tyr204, #9101), BiP/GRP78 (C50B12), IRE1a (14C10), CHOP (L63F7) and PERK (D11A8) from Cell Signaling Technology; p-IRE1a (Ser724; NB100-2323) from Novus Biologicals; GCLC (Ab41463), beta-actin (ab8227) and ATF6 (Ab37149) from Abcam; p-PERK (Thr 981, sc-32577) and ATF3 (C19) were purchased from Santa Cruz. All primary antibodies were used at 1:1000 dilutions and secondary antibodies were 1:3000 in TBS-T with 5% BSA.
# [3] = test system: NFκB-responsive firefly luciferase construct in MDA-MB231 cells; assay: NFκB gene reporter assay; type: cell-based, human; settings: MDA-MB231, pre-incubation with inhibitor
# Method: (§2) Prior to transfection, cells were plated in 96-well plates to 80-90% confluence (100 μL antibiotic free-medium) after 24 h. When used, siRNA were incubated by reverse transfection during cells seeding. […] A mixture of non-inducible firefly luciferase construct and constitutively expressing Renilla luciferase construct (40:1) were used as negative controls. Approximately 24 h post-transfection, the medium was changed and the cells were treated for 12 h with alkylating agents (with/out 6 h pre-treatments). At the end of this period, medium was changed to drug-free fresh medium (to minimize the effect of alkylating toxicity on promoters activity) and cells were kept for an additional 12 h.
# human endothelial cells = assay: In vitro angiogenesis (Angiophase kit, CD31); type: cell-based; settings: direct incubation
# Method: as §1
# The Angiophase kit (MBL Inc.) was used to assess the angiogenic potential of conditioned media (CM) from breast cancer cells or the direct effect of pharmaceutical inhibitors (free-drug system) on vessel-like structures formation in vitro. With this kit, human endothelial cells are co-cultured in a specially designed medium to form threadlike tubule structures. These gradually join up to form a network of anastomosing tubules, which resemble the capillary bed found in the CAM assay. Kit-provided cryopreserved co-culture of human endothelial cells were plated and kept for 96 h (proliferative phase) without treatments. Afterwards, the cells were maintained in the presence of conditioned medium from alkylating agent treated cells or control medium for a total of 14 days (angiogenic/vasculogenic phase). Medium was changed each 2 days. At the end of treatments, the cells were fixed and immune-stained for CD31 (PECAM-1), following by incubation with secondary antibody conjugate. ELISA was developed using the soluble substrate p-nitrophenyl-phosphate (p-NPP) whose product was colorimetrically read at 405 nm. After ELISA assays, the wells were washed with dH2O and tubule staining was performed by incubating CD31-stained tubules with the substrate BCIP/NBT, which form insoluble precipitates. Tubules were counted and photographed for qualitative monitoring.
# [4] = test system: AP1-responsive firefly luciferase construct in MDA-MB231 cells; assay: AP-1 gene reporter assay; type: cell-based, human; settings: MDA-MB231, pre-incubation with inhibitor
# Method: as §2
# [5] = test system: Kc167 cells, MEFs, and MDA-MB231 breast cancer cells; assay: Cell viability (CellTiter-Glo); type: cell-based, D. melanogaster, mouse, human; settings: pre-incubation, then MMS; all cell types tested; 48 h
# Method: The D. melanogaster embryonic cell line Kc167 was grown in Schneider medium (Invitrogen, Carlsbad, Calif.) supplemented with 10% heat-inactivated (56° C./30 min) fetal bovine serum (FBS), penicillin and streptomycin at 22° C. in a humidified incubator. Primary MEFs were obtained by harvesting 14.5-day C57BL/6J embryos as previously described (Ravi et al., 2009, PLoS Genet 5, e1000527). Briefly, fetal liver and head were removed and the remainder of the embryo was mechanically disaggregated in plating medium. A suspension of single-cells was plated in DMEM (plus 10% FBS, 100 U/mL penicillin and 100 μg/mL streptomycin). MEFs were grown for two passages before freezing aliquots. Aliquots were taken and expanded as needed for each experiment. MDA-MB231, SkBr3 and MCF-7 breast cancer cells lines were obtained from ATCC and grown in DMEM supplemented with 10% inactivated FBS plus antibiotics in a 37° C. humidified incubator at […] atmosphere. Cells were kept and treated in the exponential phase of growing (60-70% confluence). […] DMSO concentrations were kept to a maximum of 0.1% for all experiments. Cell viability was assessed using CellTiter-Glo Luminescent Viability assay (Promega) in 384 or 96-well plates white-border clear-bottom plated cells. For caspase-3/7 activity, Caspase-Glo 3/7 Assay kits were used (Promega). For caspase assays, the cells were seeded in 96-well plates and assayed directly after treatments. Caspase-3/7 inhibitor (Z-DEVD-fmk) was used to ensure assay specificity. LDH release into culture medium was quantified by Cytotox-96 Non-Radioactive assay kit in agreement with instructions (Promega).
# [6] = test system: MDA-MB231 xenograft implants; assay: MDA-MB231 xenograft study; type: in vivo, mouse
# From the text: The study was approved by the University of Texas Health Science Center at San Antonio Institutional Animal Care and Use Committee (IACUC) policy as outlined in protocol number 11024. The facility is operated in compliance with the Public Law 89-544 (Animal Welfare Act) and its amendments, Public Health Services Policy on Humane Care and Use of Laboratory Animals (PHS Policy) using the Guide for the Care and Use of Laboratory Animals (Guide) as the basis of operation. Selection of cyclophosphamide and sorafenib doses was based on previously published reports (Sun et al., 2010, J Int Med Res 38, 967-76; Wilhelm et al., 2004 Cancer Res 64, 7099-109). MDA-MB-231 cells were harvested by trypsinization, washed and re-suspended in serum-free medium. Thereafter, cells were mixed with matrigel (1:1), and approximately 5×10^6 cells were subcutaneously injected in the right flank of each mouse. When the average tumor volume reached about 100 mm^3, mice were randomized into groups of 8 animals each, and the following treatment protocol was implemented: Group 1 (control): 100 μL of saline (i.p.); Group 2: sorafenib (1 mg/kg; i.p.) for 9 days; Group 3: cyclophosphamide 0.1 g/kg on days 2, 4, 6 and 8; Group 4: Sorafenib+cyclophosphamide (combination of same above described regimens). All animals were sacrificed 5 days after the end of treatments (15th day of the treatment protocol). Body weight of mice was recorded weekly, and tumor size was measured thrice a week in two dimensions using a digital caliper. The tumor volume was calculated by the formula 0.5236 L1(L2)^2, where L1 is the long axis, and L2 is the short axis of the tumor. At the termination of the study, mice were euthanized; tumors were excised and a part was fixed in 10% phosphate-buffered formalin for H&E, Masson's staining and immunohistochemistry (IHC) analyses.
molecule,measurement,setting,value
"O=P1(N(CCCl)CCCl)NC(OO)CCO1 (centres unmarked) [4-HC, 4-hydroperoxycyclophosphamide]","ROS production, agent alone",[1],increased ROS
same,"production of IL-8, MMP-1 and MMP-3","IL8, MMP1, MMP3 and PGE2",increased the production of these molecules
same,prostaglandin E2 (PGE2) in culture medium and COX-2 protein in lysates,"IL8, MMP1, MMP3 and PGE2",increased levels of prostaglandin E2 (PGE2)
same,NRF2 and GCLC protein levels,[2],induced NRF2 and GCLC protein
same,immunocontent of ER stress markers,[2],increased the immunocontent of ER stress markers
Cc1ccc(S(=O)(=O)/C=C/C#N)cc1 [BAY117082],effect on MMS-induced activation of NFκB reporter,[3],blocked
"[NH2][Pt]([NH2])([Cl])[Cl] [CDDP, cisplatin]","ROS production, agent alone",[1],increased ROS
same,"production of IL-8, MMP-1 and MMP-3","IL8, MMP1, MMP3 and PGE2",increased the production of these molecules
same,prostaglandin E2 (PGE2) in culture medium and COX-2 protein in lysates,"IL8, MMP1, MMP3 and PGE2",increased levels of prostaglandin E2 (PGE2)
same,NRF2 and GCLC protein levels,[2],induced NRF2 and GCLC protein
same,immunocontent of ER stress markers,[2],increased the immunocontent of ER stress markers
"CCCCC[C@H](O)/C=C/[C@H]1[C@H](O)CC(=O)[C@@H]1C/C=C\CCCC(=O)O [PGE2, prostaglandin E2]","vessel-like structure formation, purified factor",human endothelial cells,angiogenic
C[S+]([O-])c1ccc(-c2nc(-c3ccc(F)cc3)c(-c3ccncc3)[nH]2)cc1 (centres unmarked) [SB203508],effect on MMS-induced activation of NFκB reporter,[3],only blocked the NFκB reporter
same,effect on MMS-induced activation of AP-1 reporter,[4],only blocked the NFκB reporter
O=C1c2ccccc2-c2n[nH]c3cccc1c23 [SP600129],effect on MMS-induced activation of AP-1 reporter,[4],blocked
Cc1c(C)c2c(c(C)c1O)CCC(C)(C(=O)O)O2 (centres unmarked) [Trolox],effect on ROS levels,"[1]; Trolox 200 μM, NAC 7.5 mM, GSH-E 10 mM",reduced ROS below levels of the control
same,effect on MMS toxicity,[5],had no effect
"Cc1c2oc3c(C)ccc(C(=O)N[C@@H]4C(=O)N[C@H](C(C)C)C(=O)N5CCC[C@H]5C(=O)N(C)CC(=O)N(C)[C@@H](C(C)C)C(=O)O[C@@H]4C)c3nc-2c(C(=O)N[C@@H]2C(=O)N[C@H](C(C)C)C(=O)N3CCC[C@H]3C(=O)N(C)CC(=O)N(C)[C@@H](C(C)C)C(=O)O[C@@H]2C)c(N)c1=O [actinomycin D] (I: T[dV]P[Sar][NMeV] / II: T[dV]P[Sar][NMeV]; ester I:1-I:C, II:1-II:C; linker I:N-II:N via Actinocin(9to1))",effect on MMS-induced NRF2 activation,[2],blocked NRF2 activation
C[C@@H]1C[C@@H]([C@H](O)CC2CC(=O)NC(=O)C2)C(=O)[C@@H](C)C1 [cycloheximide],effect on MMS-induced NRF2 activation,[2],blocked NRF2 activation
O=P1(N(CCCl)CCCl)NCCCO1 (centres unmarked) [cyclophosphamide],collagen deposition (wound healing phenotype),[6]; cyclophosphamide alone,spreading areas of collagen deposition
same,"tumor microvessels (histology, CD31)",[6]; cyclophosphamide alone vs untreated,increased number of niches of microvessels
same,"tumor growth, single agent","[6]; sorafenib 1 mg/kg i.p. 9 days, cyclophosphamide 0.1 g/kg days 2, 4, 6, 8",reduced tumor size
VEGF,"vessel-like structure formation, purified factor",human endothelial cells,angiogenic
